Target: T1, Purified ERAP1(37-941)-10His (ERAP1) (Homo sapiens, UniProt Q9NZ08)
T1 construct: Purified ERAP1(37-941)-10His (ERAP1); 10His (C)
Experiment: ERAP1 mediated hydrolysis of an amide substrate measured in a biochemical system (10-mer decapeptide substrate)
Conditions: 10-mer substrate, 23° C. for 1 h, excitation 279 nm and emission 355 nm; read-out: IC50 vs Decapeptide WRVYEKC(Dnp)ALK-acid (where Dnp is Dinitrophenyl maleimide) (10-mer)
In short: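 ERAP1(37-941)-10His preincubated with compound in 25 mM Bis-tris propane, 0.05% HPMC, pH 7.75, then reacted 1 h at 23 °C with 10-mer WRVYEKC(Dnp)ALK (100 μM solution added in equal volume). Fluorescence read at ex 279/em 355 nm; IC50 from 4-parameter fit.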

T1 sequence (Q9NZ08 37-941): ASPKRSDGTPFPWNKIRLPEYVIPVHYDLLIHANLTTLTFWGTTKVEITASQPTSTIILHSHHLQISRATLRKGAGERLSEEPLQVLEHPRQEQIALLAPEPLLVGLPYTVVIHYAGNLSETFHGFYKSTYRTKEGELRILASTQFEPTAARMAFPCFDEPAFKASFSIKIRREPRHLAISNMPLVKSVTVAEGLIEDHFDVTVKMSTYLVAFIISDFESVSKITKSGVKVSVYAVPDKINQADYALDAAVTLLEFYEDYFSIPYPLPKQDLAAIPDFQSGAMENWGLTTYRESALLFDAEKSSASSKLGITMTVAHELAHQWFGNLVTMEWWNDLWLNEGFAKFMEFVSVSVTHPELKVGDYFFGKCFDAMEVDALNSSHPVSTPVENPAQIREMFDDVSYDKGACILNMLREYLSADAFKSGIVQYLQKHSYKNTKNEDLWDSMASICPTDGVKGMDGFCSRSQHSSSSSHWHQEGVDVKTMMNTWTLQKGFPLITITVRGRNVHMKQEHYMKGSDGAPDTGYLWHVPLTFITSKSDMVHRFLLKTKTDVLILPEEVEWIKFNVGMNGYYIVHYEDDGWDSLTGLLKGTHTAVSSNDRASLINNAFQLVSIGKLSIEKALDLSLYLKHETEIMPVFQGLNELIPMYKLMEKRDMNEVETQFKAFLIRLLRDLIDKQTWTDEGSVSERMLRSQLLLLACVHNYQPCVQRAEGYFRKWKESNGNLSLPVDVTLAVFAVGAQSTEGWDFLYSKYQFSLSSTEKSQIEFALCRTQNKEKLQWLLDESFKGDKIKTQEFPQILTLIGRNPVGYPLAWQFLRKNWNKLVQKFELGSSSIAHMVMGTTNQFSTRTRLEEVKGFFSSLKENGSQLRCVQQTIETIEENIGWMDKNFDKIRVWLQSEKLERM

Compound | IC50 [nM]
COc1ccc(C(=O)O)cc1S(=O)(=O)Nc1cc(C#N)ccc1-c1ccc(C)s1 [Example 81, 3-(N-(5-cyano-2-(5-methylthiophen-2-yl)phenyl)sulfamoyl)-4-methoxybenzoic acid] | < 500
N#Cc1cc(NS(=O)(=O)c2cc(C(=O)O)ccc2C2CC2)c(-c2ccc(Cl)s2)cc1Cl [Example 134, 3-(N-(4-chloro-2-(5-chlorothiophen-2-yl)-5-cyanophenyl)sulfamoyl)-4-cyclopropylbenzoic acid] | < 500
N#Cc1cc(NS(=O)(=O)c2cc(C(=O)O)ccc2C2CC2)c(-c2ncccn2)cc1F [Example 182, 3-(N-(5-cyano-4-fluoro-2-(pyrimidin-2-yl)phenyl)sulfamoyl)-4-cyclopropylbenzoic acid] | < 500
COc1ccc(C(=O)O)cc1S(=O)(=O)Nc1cc(C(F)(F)F)ccc1-c1ccsc1 [Example 20, 4-methoxy-3-(N-(2-(thiophen-3-yl)-5-(trifluoromethyl)phenyl)sulfamoyl) benzoic acid] | < 500
O=C(O)c1ccc(C2CC2)c(S(=O)(=O)Nc2cc(-c3ccns3)c(Cl)cc2-c2ccccn2)c1 [Example 191, 3-(N-(4-chloro-5-(isothiazol-5-yl)-2-(pyridin-2-yl)phenyl)sulfamoyl)-4-cyclopropylbenzoic acid] | < 500
O=C(O)c1ccc(C2CC2)c(S(=O)(=O)Nc2cc(-n3cnnn3)c(F)cc2-n2cccc2)c1 [Example 207, 4-cyclopropyl-3-(N-(4-fluoro-2-(pyrrol-1-yl)-5-(tetrazol-1-yl)phenyl)sulfamoyl)benzoic acid] | < 500
CCc1ccc(C(=O)O)cc1S(=O)(=O)Nc1cc(S(C)(=O)=O)ccc1-c1ccc(C#N)s1 [Example 120, 3-(N-(2-(5-cyanothiophen-2-yl)-5-(methylsulfonyl)phenyl)sulfamoyl)-4-ethylbenzoic acid] | < 500
O=C(O)c1ccc(C2CC2)c(S(=O)(=O)Nc2cc(-c3ccns3)ccc2-c2ccccc2)c1 [Example 135, 4-cyclopropyl-3-(N-(4-(isothiazol-5-yl)-[1,1′-biphenyl]-2-yl)sulfamoyl)benzoic acid] | < 500
CCc1ccc(C(=O)O)cc1S(=O)(=O)Nc1cc(S(C)(=O)=O)ccc1-c1ccccn1 [Example 71, 4-ethyl-3-(N-(5-(methylsulfonyl)-2-(pyridin-2-yl)phenyl)sulfamoyl)benzoic acid] | < 500
Cn1ncnc1-c1cc(NS(=O)(=O)c2cc(C(=O)O)ccc2C2CC2)c(-c2ccccn2)cc1F [Example 186, 4-cyclopropyl-3-(N-(4-fluoro-5-(1-methyl-1,2,4-triazol-5-yl)-2-(pyridin-2-yl)phenyl)sulfamoyl)benzoic acid] | < 500
CCc1ccc(C(=O)O)cc1S(=O)(=O)Nc1cc(-n2cnnn2)ccc1-c1ccccc1 [Example 52, 3-(N-(4-(tetrazol-1-yl)-[1,1′-biphenyl]-2-yl)sulfamoyl)-4-ethylbenzoic acid] | < 500
N#Cc1ccc(-c2ccccn2)c(NS(=O)(=O)c2cc(C(=O)O)ccc2C#N)c1 [Example 175, 4-cyano-3-(N-(5-cyano-2-(pyridin-2-yl)phenyl)sulfamoyl)benzoic acid] | > 5000
COc1ccc(C(=O)O)cc1S(=O)(=O)Nc1cc(C(F)(F)F)ccc1-c1ccco1 [Example 23, 3-(N-(2-(furan-2-yl)-5-(trifluoromethyl)phenyl)sulfamoyl)-4-methoxybenzoic acid] | < 500
Cn1nccc1-c1cc(NS(=O)(=O)c2cc(C(=O)O)ccc2C2CC2)c(-c2ccccn2)cc1F [Example 185, 4-cyclopropyl-3-(N-(4-fluoro-5-(1-methylpyrazol-5-yl)-2-(pyridin-2-yl)phenyl)sulfamoyl)benzoic acid] | < 500
CCc1ccc(C(=O)O)cc1S(=O)(=O)Nc1cc(C#N)ccc1-c1cccs1 [Example 43, 3-(N-(5-cyano-2-(thiophen-2-yl)phenyl)sulfamoyl)-4-ethylbenzoic acid] | < 500
CCc1ccc(C(=O)O)cc1S(=O)(=O)Nc1cc(C(F)(F)F)ccc1-c1cncs1 [Example 129, 4-ethyl-3-(N-(2-(thiazol-5-yl)-5-(trifluoromethyl)phenyl)sulfamoyl)benzoic acid] | < 500
CCc1ccc(C(=O)O)cc1S(=O)(=O)Nc1cc(C(F)(F)F)ccc1-c1ncccn1 [Example 68, 4-ethyl-3-(N-(2-(pyrimidin-2-yl)-5-(trifluoromethyl)phenyl)sulfamoyl)benzoic acid] | < 500
O=C(O)c1ccc(C2CC2)c(S(=O)(=O)Nc2cc(-n3cnnn3)c(F)cc2-c2ccccn2)c1 [Example 190, 4-cyclopropyl-3-(N-(4-fluoro-2-(pyridin-2-yl)-5-(tetrazol-1-yl)phenyl)sulfamoyl)benzoic acid] | < 500

Compound | IC50 [nM]
COc1ccc(C(=O)O)cc1S(=O)(=O)Nc1cc(-c2nnn[nH]2)ccc1-c1cccs1 [Example 65, 3-(N-(5-(tetrazol-5-yl)-2-(thiophen-2-yl)phenyl)sulfamoyl)-4-methoxybenzoic acid] | < 500
CCc1ccc(C(=O)O)cc1S(=O)(=O)Nc1cc(S(C)(=O)=O)ccc1-c1ccc(Cl)s1 [Example 89, 3-(N-(2-(5-chlorothiophen-2-yl)-5-(methylsulfonyl)phenyl)sulfamoyl)-4-ethylbenzoic acid] | < 500
O=C(O)c1ccc(C2CC2)c(S(=O)(=O)Nc2cc(-c3ccns3)ccc2-n2cccc2)c1 [Example 143, 4-cyclopropyl-3-(N-(5-(isothiazol-5-yl)-2-(pyrrol-1-yl)phenyl)sulfamoyl)benzoic acid] | < 500
CCc1ccc(C(=O)O)cc1S(=O)(=O)Nc1cc(C(F)(F)F)ccc1-c1cccn1C [Example 73, 4-ethyl-3-(N-(2-(1-methyl-pyrrol-2-yl)-5-(trifluoromethyl)phenyl)sulfamoyl)benzoic acid] | < 500
COc1ccc(C(=O)O)cc1S(=O)(=O)Nc1cc(C(F)(F)F)ccc1-c1cc(C)nn1C [Example 4, 3-(N-(2-(1,3-dimethylpyrazol-5-yl)-5-(trifluoromethyl)phenyl)sulfamoyl)-4-methoxybenzoic acid] | < 5000
O=C(O)c1ccc(C2CC2)c(S(=O)(=O)Nc2cc(-c3ccns3)c(F)cc2-c2ccccn2)c1 [Example 184, 4-cyclopropyl-3-(N-(4-fluoro-5-(isothiazol-5-yl)-2-(pyridin-2-yl)phenyl)sulfamoyl)benzoic acid] | < 500
O=C(O)c1ccc(C2CC2)c(S(=O)(=O)Nc2cc(-c3ccns3)ccc2-c2ccc(F)s2)c1 [Example 147, 4-cyclopropyl-3-(N-(2-(5-fluorothiophen-2-yl)-5-(isothiazol-5-yl)phenyl)sulfamoyl)benzoic acid] | < 500
COc1ccc(C(=O)O)cc1S(=O)(=O)Nc1cc(C(F)(F)F)ccc1-c1ccc(C)cc1 [Example 47, 4-methoxy-3-(N-(4′-methyl-4-(trifluoromethyl)-[1,1′-biphenyl]-2-yl)sulfamoyl)benzoic acid] | > 5000
CS(=O)(=O)c1ccc(-c2ccc(C3CC3)s2)c(NS(=O)(=O)c2cc(C(=O)O)ccc2C2CC2)c1 [Example 115, 4-cyclopropyl-3-(N-(2-(5-cyclopropylthiophen-2-yl)-5-(methylsulfonyl)phenyl)sulfamoyl)benzoic acid] | < 500
Cc1sncc1-c1ccc(-c2ccc(Cl)s2)c(NS(=O)(=O)c2cc(C(=O)O)ccc2C2CC2)c1 [Example 149, 3-(N-(2-(5-chlorothiophen-2-yl)-5-(5-methylisothiazol-4-yl)phenyl)sulfamoyl)-4-cyclopropylbenzoic acid] | < 500
O=C(O)c1ccc(C2CC2)c(S(=O)(=O)Nc2cc(C(F)(F)F)ccc2-c2ccc(F)s2)c1 [Example 122, 4-cyclopropyl-3-(N-(2-(5-fluorothiophen-2-yl)-5-(trifluoromethyl)phenyl)sulfamoyl)benzoic acid] | < 500
CS(=O)(=O)c1ccc(-c2ccccn2)c(NS(=O)(=O)c2cc(C(=O)O)ccc2C2CC2)c1 [Example 82, 4-cyclopropyl-3-(N-(5-(methylsulfonyl)-2-(pyridin-2-yl)phenyl)sulfamoyl) benzoic acid] | < 500
COc1ccc(-c2ccc(C(F)(F)F)cc2NS(=O)(=O)c2cc(C(=O)O)ccc2OC)cc1 [Example 48, 4-methoxy-3-(N-(4′-methoxy-4-(trifluoromethyl)-[1,1′-biphenyl]-2-yl)sulfamoyl)benzoic acid] | > 5000
COc1ccc(C(=O)O)cc1S(=O)(=O)Nc1cc(C#N)c(F)cc1-c1cccc(F)c1 [Example 112, 3-(N-(4-cyano-3′,5-difluoro-[1,1′-biphenyl]-2-yl)sulfamoyl)-4-methoxybenzoic acid] | < 500
COc1ccc(C(=O)O)cc1S(=O)(=O)Nc1cc(C(F)(F)F)ccc1-c1cccc(C)c1 [Example 6, 4-methoxy-3-(N-(3′-methyl-4-(trifluoromethyl)-[1,1′-biphenyl]-2-yl)sulfamoyl)benzoic acid] | < 500
N#Cc1ccc(-c2cccs2)c(NS(=O)(=O)c2cc(C(=O)O)ccc2C2CC2)c1 [Example 75, 3-(N-(5-cyano-2-(thiophen-2-yl)phenyl)sulfamoyl)-4-cyclopropylbenzoic acid] | < 500
Cc1sncc1-c1ccc(-c2ccccn2)c(NS(=O)(=O)c2cc(C(=O)O)ccc2C2CC2)c1 [Example 144, 4-cyclopropyl-3-(N-(5-(5-methylisothiazol-4-yl)-2-(pyridin-2-yl)phenyl)sulfamoyl)benzoic acid] | < 500
COc1ccc(C(=O)O)cc1S(=O)(=O)Nc1cc(C(F)(F)F)ccc1-c1ccccc1C#N [Example 13, 3-(N-(2′-cyano-4-(trifluoromethyl)-[1,1′-biphenyl]-2-yl)sulfamoyl)-4-methoxybenzoic acid] | < 5000

Source: patent publication US12023333B2, “Phenyl-sulfamoyl.benzoyc acids as ERAP1 modulators” (GREY WOLF THERAPEUTICS LIMITED, priority 2019, dated 2024)
